Results as given in US8148070B2, “Genetic polymorphisms associated with coronary events and drug response, methods of detection and uses thereof” (Celera Corporation, priority 2007, dated 2012).

Test system: WOSCOPS patients
Assay: WOSCOPS nested case-control study: pravastatin vs placebo, primary CHD in subgroups defined by genotype
Type: in vivo, human
Conditions: for Case (patients with coronary event): pravastatin arm; for risk reduction (coronary events) / OR, Effect of Pravastatin on MI and CHD: pravastatin vs placebo
Description: In order to identify genetic markers associated with CHD (particularly MI, including recurrent MI) or the effect of statin treatment on CHD, samples were genotyped in two clinical trials: the Cholesterol and Recurrent Events (CARE) study (a randomized multicentral double-blinded trial on secondary prevention of MI with pravastatin (Pravachol®); Sacks et al., Am. J. Cardiol. 68: 1436-1446 [1991]), and the West of Scotland Coronary Prevention Study (WOSCOPS) study (a randomized multicentral double-blinded trial on primary prevention of CHD with pravastatin (Pravachol®); Shepherd et al., N Eng J Med 333 (20), pp. 1301-7, Nov. 16, 1995; Packard et al., N Eng J Med 343 (16), pp. 1148-55, Oct. 19, 2000).
The designs of the original WOSCOPS cohort and the nested case-control study have been described (Shepherd et al., N Eng J Med 333 (20), pp. 1301-7, Nov. 16, 1995; Packard et al., N Eng J Med 343 (16), pp. 1148-55, Oct. 19, 2000). The objective of the WOSCOPS trial was to assess pravastatin efficacy at reducing risk of primary MI or coronary death among Scottish men with hypercholesterolemia (fasting LDL cholesterol>155 mg/dl). Participants in the WOSCOPS study were 45-64 years of age and followed for an average of 4.9 years for coronary events. The nested case-control study included as cases all WOSCOPS patients who experienced a coronary event (confirmed nonfatal MI, death from CHD, or a revascularization procedure; N=580). Controls were age- and smoking-matched to unaffected patients.
In analyzing the CARE patients, statistical analysis was performed with SAS version 9. Cox proportional hazard models (Wald tests) were used in CARE to assess the association of genotype with both the risk of incident MI in the placebo arm and the effect of pravastatin on MI compared to placebo in subgroups defined by genotypes. In analyzing the WOSCOPS patients, a conditional logistic regression model was used in WOSCOPS given that the controls had been previously matched to the cases. The column entitled “On-trial MI” lists the number of patients who suffered a recurrent MI during the clinical trial period.
HR stands for Hazard Ratio, which is a concept similar to Odds Ratio (OR). The HR in event-free survival analysis is the effect of an explanatory variable on the hazard or risk of an event. For examples, it describes the likelihood of developing MI based on comparison of rate of coronary events between carriers of the certain allele and noncarriers; therefore, HR=1.5 would mean that carriers of the certain allele have 50% higher risk of coronary events during the study follow up than non-carriers. HR can also describe the effect of statin therapy on coronary events based on comparison of rate of coronary events between patient treated with statin and patient treated with placebo (or other statin) in subgroups defined by SNP genotype; therefore, HR=0.5 would mean that, for example, carriers of the certain allele, had 50% reduction of coronary events by statin therapy as compared to placebo. In Table 6, p interaction values were calculated. An interaction (or effect modification) is formed when a third variable modifies the relation between an exposure and outcome. […] Genotype and drug interaction is present when the effect of statins (incidence rate of disease in statin-treated group, as compared to placebo) differs in patients with different genotypes. The hCV3054799 risk allele predicted risk of MI in CARE and was associated with odds of CHD in WOSCOPS.

## CC[C@H](C)C(=O)O[C@H]1C[C@H](O)C=C2C=C[C@H](C)[C@H](CC[C@@H](O)C[C@@H](O)CC(=O)O)[C@H]21 [Pravastatin, pravastatin]
AA (noncarriers), matched and adjusted
  OR, Adjusted (CHD, pravastatin vs placebo): 0.91
AA (noncarriers), matched for age and smoking
  OR, Matched (CHD, pravastatin vs placebo): 0.94
AA, 213 controls
  Case (patients with coronary event): 81 number of patients
GG + GA (719Arg carriers), cases and controls matched for age and smoking
  OR, Matched (CHD, pravastatin vs placebo): 0.50
GG + GA (719Arg carriers), matched and adjusted for hypertension, diabetes, BMI, LDL-C, HDL-C
  OR, Adjusted (CHD, pravastatin vs placebo): 0.50
GG + GA, 330 controls
  Case (patients with coronary event): 108 number of patients
Carriers of the KIF6 719Arg allele, significant
  risk reduction (coronary events): 50%
noncarriers, insignificant
  risk reduction (coronary events): 9%
hCV3054808 genotype AA
  OR, Effect of Pravastatin on MI and CHD: 0.55
hCV3054808 genotype AC
  OR, Effect of Pravastatin on MI and CHD: 0.52
hCV3054808 genotype CC
  OR, Effect of Pravastatin on MI and CHD: 0.89
hCV3054813 genotype CC
  OR, Effect of Pravastatin on MI and CHD: 0.64
hCV3054813 genotype CT
  OR, Effect of Pravastatin on MI and CHD: 0.51
hCV3054813 genotype TT
  OR, Effect of Pravastatin on MI and CHD: 0.95
hCV29992177 genotype AA
  OR, Effect of Pravastatin on MI and CHD: 0.71
hCV29992177 genotype GA
  OR, Effect of Pravastatin on MI and CHD: 0.54
hCV29992177 genotype GG
  OR, Effect of Pravastatin on MI and CHD: 2.55
hCV30225864 genotype CC
  OR, Effect of Pravastatin on MI and CHD: 0.67
hCV30225864 genotype CT
  OR, Effect of Pravastatin on MI and CHD: 0.54
hCV30225864 genotype TT
  OR, Effect of Pravastatin on MI and CHD: 0.78
